Measurements reported in US8501691B2, “Methods for treatment of headaches by administration of oxytocin” (The Board of Trustees of the Leland Stanford Junior …, priority 2005, dated 2013).

Key:
[1] = system: severe headaches secondary to adult hydrocephalus and multiple shunt surgeries; assay: Intranasal oxytocin in a patient, pain rating on VAS (0-10); type: in vivo, human
Description: (§1) Upon presentation at the clinic, a patient is asked for a pain assessment (0-10 rating on VAS). The VAS is an 11-point numerical pain rating scale wherein 0 equals “no pain” and 10 equals the “worst pain imaginable”. The analgesic agent is self-administered by nasal applicator. Initially, one puff is given in each nostril. After waiting 15 minutes the patient is asked again for a pain rating and any side effects (e.g. sedation) are assessed. If pain is still present, another puff per nostril is self-administered. After another 15 minutes, pain and side-effects are assessed. If pain is still present, two mote puffs of agent are self-administered. After 15 minutes, pain is rated again, and side effects are assessed. If pain is still present, a final two puffs are given. After another 15 minutes and at 15, 30 and 60 minutes after that, pain and side-effects are re-assessed.
The patient's pain had been unrelieved by treatment with triptans, ergotamines, and high-dose opiates. The patient presented with a pain rating of 8 out of 10 as assessed by the procedure described herein. The patient self-administered oxytocin intranasally at a dose of 4 IU in 0.2 ml. […] Pain relief lasted approximately 24 hours, only briefly interrupted by mild head pain that occurred with activity.
This patient returned to the clinic approximately 1 month later. At this appointment the patient rated the pain as an 8 out of 10. Unbeknownst to them, the patient was first given an intranasal administration of normal saline, in approximately the same volume as used for the oxytocin administration (0.2 ml). No analgesic or other effect was reported by the patient. After waiting 30 minutes, the patient was administered 4 IU of oxytocin intranasally as described above. Within 20-25 minutes, the patient reported that the pain was completely gone. […] Pain returned approximately 24 hours after treatment.

[2] = system: trigeminal nucleus caudalis wide dynamic range (WDR) neurons; assay: Electrical stimulation-induced responses, single unit extracellular recordings in trigeminal nucleus caudalis; type: in vivo, rat
Description: Male Sprague-Dawley rats (Charles River Laboratories) were anesthetized with isoflurane and used in the following experiments. In the anesthetized rats, single unit, extracellular recordings were performed in trigeminal nucleus caudalis while stimulating the ipsilateral facial skin with constant-current bipolar electrical stimulation. Epoxylate-insulated, tungsten microelectrodes (10 MOhm) were used under stereotaxic coordinate control.
Shown are responses (action potentials per 30 stimuli) to repeated stimulation of a rat's face before oxytocin administration (pre-oxytocin). After administration with oxytocin at approximately 0.1 IU, responses were recorded every five minutes for 65 minutes. A second administration of oxytocin at the same dosage was administered at approximately 70 minutes after the first dose. The approximate site of the administration of the electrical stimulation is indicated by the black spot on a map of the rat's face (FIG. 3B).

“cluster” headache = assay: Intranasal oxytocin in a patient with headache; type: in vivo, human; settings: 16 IU intranasal
Description: as §1
A patient was seen reporting having an ongoing strong headache with occasional boring pain on the left side. The pain had lasted for more than 2 weeks and had been diagnosed as a “cluster” headache. The patient was treated with oxytocin administered intranasally at a dose of 16 IU. The patient reported that their headache completely resolved within 15 minutes and relief lasted for 24 hours.

“hangover” headache = assay: Intranasal oxytocin in a patient, pain rating on VAS (0-10); type: in vivo, human; settings: 24 IU intranasal, baseline 8 out of 10
Description: as §1
A patient was seen reporting a “hangover” headache which was rated as an 8 out of 10 as assessed by the procedure described herein. The patient was treated with oxytocin administered intranasally at a dose of 24 IU. The patient reported that the headache completely resolved within 15 minutes.

[3] = system: single pain sensing nerve cells in the trigeminal ganglion; assay: Trigeminal ganglion nerve impulses in response to noxious laser pulses to the face; type: in vivo, rat; settings: 10 nmoles applied to the nose, post- vs pre-oxytocin
Description: Sprague-Dawley rats (Charles River Laboratories) were anesthetized with isofluorane and a platinum electrode was inserted transcranially into the trigeminal ganglion. Nerve impulses (action potential) were recorded from single pain sensing nerve cells in the trigeminal ganglion in response to application of noxious laser pulses to the face of the rats. After recording responses to several identical laser pulses, 10 nmoles of oxytocin was applied to the nose of the rats. Thereafter, identical laser pulses were once again applied and recorded.

daily migraine = assay: Intranasal oxytocin in a patient, pain rating on VAS (0-10); type: in vivo, human; settings: 24 IU intranasal, baseline pain rating 4 out of 10
Description: as §1
A patient was seen after reporting a daily migraine which they rated as a mild to moderate headache with a pain rating of 4 out of 10 as assessed by the procedure described herein. The patient was treated with oxytocin administered intranasally at a dose of 24 IU. The patient reported that the oxytocin decreased the pain to a rating of 2 out of 10.

[4] = system: “stress” or tension headache; type: in vivo, human; settings: 4 IU in 0.2 ml intranasal
Description: as §1
A patient was seen reporting a “stress” or tension headache for which they rated their head pain as a 5 out of 10 as assessed by the procedure described herein. The patient was treated with oxytocin administered intranasally at a dose of 4 IU in 0.2 ml. Approximately 10-15 minutes after administration, the patient reported that the pain was completely gone. […] The patient reported being pain free for approximately 48 hours.

Sprague-Dawley rats = assay: Withdrawal latencies after noxious thermal (laser) stimulation to the ears or hindpaws after intranasal administration; type: in vivo, rat; settings: 10 μg intranasal, tested five minutes after final application
Text: Activity of an analgesic agent can be tested in a rat model by studying treatment-induced changes in latencies (times) of withdrawal in response to noxious heating of the skin, typically applying a stimulus to an ear or a hindpaw. Thus, application of coherent or non-coherent (non-laser) radiant heat to the ear or hindpaw will elicit rapid withdrawal movements. […] Transmucosal or transdermal administration of analgesic agents can be tested for regional and/or systemic analgesia. After administration of an analgesic agent an increase in latency to withdrawal time of the ear would indicate regional analgesia. A change in the latency to withdrawal time of the hindpaw would indicate whether there was a systemic analgesic effect, i.e. no change in the latency to withdrawal time indicates no systemic effect, while an increase in latency to withdrawal time would indicate a systemic effect.
Rats are housed in a 12/12-hour light/dark environment and are provided food and water ad libitum. […]
Sprague-Dawley rats (Charles River Laboratories) were lightly anesthetized with urethane and placed with minimal restraint on a heating pad to maintain their body temperature at 37° C. […] Baseline withdrawal latencies were measured by delivering 4 separate stimuli with a resting period of approximately 15 minutes between each stimulus. […] As described above, testing sessions were videotaped and analyzed. […]

[5] = first visit, 4 IU in 0.2 ml intranasal
[6] = first visit, 4 IU intranasal, baseline pain rating 8 out of 10
[7] = approximately 0.1 IU intranasal, first administration
[8] = second dose, same dosage, approximately 70 minutes after the first

For `CC[C@H](C)[C@@H]1NC(=O)[C@H](Cc2ccc(O)cc2)NC(=O)[C@@H](N)CSSC[C@@H](C(=O)N2CCC[C@H]2C(=O)N[C@@H](CC(C)C)C(=O)NCC(N)=O)NC(=O)[C@H](CC(N)=O)NC(=O)[C@H](CCC(N)=O)NC1=O` [oxytocin, Cys-Tyr-Ile-Gln-Asn-Cys-Pro-Leu-Gly], the sedation [1, 5] was “mild sedation”, the “time for sedation to clear” value [1, 5] was ≤ 10 min and the “time to onset of sedation” value [1, 5] was ≤ 5 min. The “breast tenderness the day after treatment” value ([1]; first visit, 4 IU intranasal) was “some breast tenderness”, the “duration of pain relief” value ([1]; first visit, 4 IU intranasal) was “approximately 24 hours” and the “time for breast tenderness to resolve” value ([1]; first visit, 4 IU intranasal) was ≤ 24 h. For the same molecule, the “headache pain by 15 minutes after administration” value [1, 6] was “significantly reduced”, the “time until pain completely gone” value [1, 6] was ≤ 30 min and the “time until pain completely gone” value ([1]; second visit about 1 month later, 4 IU intranasal 30 minutes after saline, baseline 8 out of 10) was 20 to 25 min. For the same molecule, the “breast tenderness the following day” value ([1]; second visit, 4 IU intranasal) was “nor was there any breast tenderness”, the sedation ([1]; second visit, 4 IU intranasal) was “no observed sedation” and the “time until pain returned after treatment” value ([1]; second visit, 4 IU intranasal) was “approximately 24 hours”. For the same molecule, the “responses (action potentials per 30 stimuli) after first administration” value [2, 7] was “significant reduction in responses”, the “time of beginning of reduction in responses after first administration” value [2, 7] was 10 min and the “time post treatment until which reduction continued (responses then began to increase)” value [2, 7] was 50 min. For the same molecule, the “responses (action potentials per 30 stimuli) after second administration” value [2, 8] was “significant reduction in responses”, the “time to reduction in responses after second administration” value [2, 8] was ≤ 10 min and the duration of relief (“cluster” headache) was 24 h. The “time until headache completely resolved” value (“cluster” headache) was ≤ 15 min, the “time until headache completely resolved” value (“hangover” headache) was ≤ 15 min and the “neuronal response to noxious laser pulses (average nerve impulses per laser pulse)” value [3] was “significantly (p<0.05) reduced”. For the same molecule, the “pain rating after treatment” value (daily migraine) was 2 out of 10, the duration pain free [4] was “approximately 48 hours” and the “time until pain completely gone” value ([4]; baseline pain 5 out of 10) was 10 to 15 min. For the same molecule, the “regional analgesic effect (ear withdrawal latency)” value (Sprague-Dawley rats; laser to ears) was “achieved a regional analgesic effect in the head region” and the “systemic analgesic effect (hindpaw withdrawal latency)” value (Sprague-Dawley rats; laser to hindpaws) was “without a systemic analgesic effect at the hindpaw”.
